# Assay results: US7442714B2, “Amlodipine gentisate and a method of its preparation” (SK Chemicals Co., Ltd., priority 2003, dated 2008)
# Where a name gives a salt, the structure may show the parent alone.
# Assays:
# [1] = test system: Rats with congenital hypertension (SHR); experiment: Anti-hypertension activity, tail-cuff method; format: in vivo, rat; settings: oral
# Procedure: Rats with congenital hypertension (SHR, male, 13-14 weeks old) were purchased from Charles River Co. (Japan). […] SHR were used those having systolic blood pressure of 170 mmHg or higher and each experimental group was composed of 8 rats. Blood pressure was measured using Multichannel 8000 (TSE Co., Germany) according to the tail-cuff method. […] […] The result of measurements was indicated in S.E.M. Statistical analysis of the measurements was performed by using Sigma Stat program (Jandel Co., USA) with respect to unpaired t-test and one-way analysis of variance (ANOVA) and the second evaluation was performed via Dunnett multiple comparisons test.
# Light stability (UV) = format: physicochemical
# Text: Table 4 represents the result of light stability of amlodipine gentisate salts of the present invention compared to that of amlodipine besylate and the total amount of UV light was 200 W·h/m^2.
# [2] = Test for stability: HPLC content of active ingredient after storage at temperature and humidity; format: physicochemical
# Text: This experiment is designed to confirm the stability of amlodipine salt. It is essential for a drug to have sufficient stability in order to be formulated into a specific form of preparation. In particular, it is especially important to have an atmospheric stability for a drug to be formulated into tablets or capsules while aqueous stability is more important when a drug is formulated into an injection type of preparation.
# rat = settings: oral; cited from earlier work
# wild bird = settings: oral; cited from earlier work
# [3] = Sprague-Dawley (printed: Sprague Dowry), rat, in vivo, po, 10 mg/kg
# Procedure: The blood samples were centrifuged for 2 min at 14,000 rpm to obtain blood plasma. 80 μL of the blood plasma was mixed with 240 μL of methanol and vortexed for 10 sec and centrifuged again for 2 min at 14,000 rpm.
# [4] = UV, total amount of UV light 200 W·h/m^2
compound,measurement,setting,value
CCOC(=O)C1=C(COCCN)NC(C)=C(C(=O)OC)C1c1ccccc1Cl.O=S(=O)(O)c1ccccc1 (racemic) [(±)-amlodipine besylate],Time after administration at which a significant decrease in blood pressure started,[1],30 min
same,Time after administration at which the decrease in blood pressure reached the peak,[1],1 h
same,Time after administration until which the anti-hypertension effect was significant,[1],6 h
same,Decrease in Blood Pressure (maximum anti-hypertension effect),[1]; 2.5 mg/kg,20.8±7.3%
same,Decrease in Blood Pressure (maximum anti-hypertension effect),[1]; 5.0 mg/kg,28.6±7.5%
same,Content of active ingredients,Light stability (UV); [4],88.3%
same,Content of active ingredients,Light stability (UV); initial,100%
same,Content of active ingredients at 40° C. with 75% humidity,[2]; 2 weeks,99.9%
same,Content of active ingredients at 60° C. with 75% humidity,[2]; 2 weeks,98.7%
same,Content of active ingredients at 40° C. with 75% humidity,[2]; 4 weeks,99.8%
same,Content of active ingredients at 60° C. with 75% humidity,[2]; 4 weeks,97.4%
same,Content of active ingredients at 40° C. with 75% humidity,[2]; 8 weeks,99.2%
same,Content of active ingredients at 60° C. with 75% humidity,[2]; 8 weeks,98.1%
same,Content of active ingredients at 40° C. with 75% humidity,[2]; initial,100%
same,Content of active ingredients at 60° C. with 75% humidity,[2]; initial,100%
"O=S(=O)(O)c1ccccc1 [Benzenesulfonic acid, benzenesulfonic acid]",LD50,rat,890 µL/kg
same,LD50,wild bird,75 mg/kg
CCOC(=O)C1=C(COCCN)NC(C)=C(C(=O)OC)[C@@H]1c1ccccc1Cl.O=S(=O)(O)c1ccccc1 [S-(−)-amlodipine besylate],Content of active ingredients,Light stability (UV); [4],90.1%
same,Content of active ingredients,Light stability (UV); initial,100%
same,Content of active ingredients at 40° C. with 75% humidity,[2]; 2 weeks,101.1%
same,Content of active ingredients at 60° C. with 75% humidity,[2]; 2 weeks,100.1%
same,Content of active ingredients at 40° C. with 75% humidity,[2]; 4 weeks,101.7%
same,Content of active ingredients at 60° C. with 75% humidity,[2]; 4 weeks,98.5%
same,Content of active ingredients at 40° C. with 75% humidity,[2]; 8 weeks,101.6%
same,Content of active ingredients at 60° C. with 75% humidity,[2]; 8 weeks,96.3%
same,Content of active ingredients at 40° C. with 75% humidity,[2]; initial,100%
same,Content of active ingredients at 60° C. with 75% humidity,[2]; initial,100%
"CCOC(=O)C1=C(COCCN)NC(C)=C(C(=O)OC)[C@@H]1c1ccccc1Cl [S-(−)-amlodipine gentisate, (S)-(−)-Amlodipine Gentisate Salt]",Period of highest concentration in blood after administration,[3],4 to 6 h
same,Time after administration at which a significant decrease in blood pressure started,[1],30 min
same,Time after administration at which the decrease in blood pressure reached the peak,[1],1 h
same,Time after administration until which the anti-hypertension effect was significant,[1],6 h
same,Decrease in Blood Pressure (maximum anti-hypertension effect),[1]; 1.25 mg/kg,19.8±5.5%
same,Decrease in Blood Pressure (maximum anti-hypertension effect),[1]; 2.5 mg/kg,24.5±7.9%
same,Content of active ingredients,Light stability (UV); [4],100.7%
same,Content of active ingredients,Light stability (UV); initial,100%
same,Light stability compared to conventional amlodipine besylate salts,Light stability (UV); under UV or visible light,superior light stability
same,Content of active ingredients at 40° C. with 75% humidity,[2]; 2 weeks,102.9%
same,Content of active ingredients at 60° C. with 75% humidity,[2]; 2 weeks,100.1%
same,Content of active ingredients at 40° C. with 75% humidity,[2]; 4 weeks,103.5%
same,Content of active ingredients at 60° C. with 75% humidity,[2]; 4 weeks,103.0%
same,Content of active ingredients at 40° C. with 75% humidity,[2]; 8 weeks,102.3%
same,Content of active ingredients at 60° C. with 75% humidity,[2]; 8 weeks,99.9%
same,Content of active ingredients at 40° C. with 75% humidity,[2]; initial,100%
same,Content of active ingredients at 60° C. with 75% humidity,[2]; initial,100%
